One data set deals with T1, human FAK (FAKcd409) (Homo sapiens, UniProt Q05397, P410T).
T1 construct: comprises residues methionine 409 to glutamate 689; made in house; host or cells: baculovirus vector expression system (insect cells)
Kind of data set: FAK fluorescence polarization assay. In kind it is biochemical. Particulars: read-out: % Inhibition FAK, compound tested at 10 µM. On the procedure: FAK Construct for Assay. The catalytic domain of human FAK (FAKcd409) was expressed using the baculovirus vector expression system. […] The protein was purified using classical chromatography techniques.
FAK HTS utilized the fluorescence polarization assay provided by LJL Biosystems. The kinase reaction contained: 100mM Hepes pH 7.5, 10mM MgCl2, 1mM DTT, 1mM ATP, and 1mg/ml poly Glu-Tyr (4: 1). The reaction is initiated by the addition of 5nM FAKcd409. The reaction is terminated by the addition of EDTA followed by addition of fluor-labelled peptide and anti-phosphotyrosine antibody, both provided by LJL Biosystems. Inhibition results are read on a Analyst (LJL) detector.
Background: Fluorescence polarisation rises when a labelled molecule tumbles more slowly, as on binding a larger partner.

For data set [1], the target named is T2, phosphorylated Tie-2 (aa 775-1122) (Homo sapiens, UniProt Q02763).
T2 construct: 4 to 12 nM phosphorylated Tie-2 (aa 775-1122); made in house; host or cells: insect cells
Briefly: TIE-2 spectrophotometric assay. It is filed as biochemical. Particulars: for inhibition at 1 µM: Table 5, bold values spectrophotometric assay, non-bolded DELFIA assay (bold not visible here), read-out: % Inhibition @ 1 µM Tie2-P. Summed up:
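Human phosphorylated Tie-2 kinase activity was measured spectrophotometrically by coupling ADP formation, from phosphoryl transfer to poly(Glu4 Tyr), to NADH oxidation via pyruvate kinase and lactate dehydrogenase. Absorbance loss at 340 nm was read on a Beckman DU650. Reactions held 1 mM phosphoenolpyruvate, 0.24 mM NADH, 40 mM MgCl2, 5 mM DTT, 0.5 mM ATP, and 15 units/mL each of PK and LDH in 100 mM HEPES, pH 7.5.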

The conditions of data set [2]: vehicle PEG400:H2O pH 2.3 30:70.
A further data set can be described thus: in vivo. Particulars: mouse, plasma, pH 2.3.
A short description of the next data set: in vitro. In kind it is in vitro ADME, human. Particulars: human liver microsomes, 5 µM test compound, 37 °C, 2 h; for remaining at 2 h, 5 µM: read-out: % remain (HLM, 2 h). In short, it runs like this: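 HLM diluted to 5 mg/mL in 100 mM KPO4, preincubated 10 min at 37 °C with NADPH-regenerating system. Compound (5 µM final) incubated at 37 °C in triplicate, sampled at 0 and 2 h into ice-cold acetonitrile, then LC-MS analysis.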
On the technique in general: Liver microsomes are vesicles of endoplasmic reticulum, rich in cytochrome P450 enzymes.

For data set [3], the system named is lung cancer cells (line MV522). Kind of data set: Cancer cell proliferation (MV522) assay. In kind it is cell-based. On the procedure:
The protocol for assessing cellular proliferation in cancer cells is similar to that used for assessments in HUVEC cells. Two thousand lung cancer cells (line MV522, acquired from American Tissue Cultural Collection) were seeded in growth media (RPMI1640 medium supplemented with 2 mM glutamine and 10% FBS). Cells are allowed to attach for 1 day prior to addition of test agents and /or vehicles. Cells are treated simultaneously with the same test agents used in the HUVEC assay. Cellular proliferation is quantified by MTT dye reduction assay 72 hours after exposure to test agents. The total length of the assay is 4 days vs. 5 for HUVEC cells because MV522 cells are not exposed to starvation medium.

Another data set deals with CDK4/Cyclin D3 complex (Homo sapiens, UniProt P11802). Briefly: biochemical. Particulars: for inhibition at 1 µM: read-out: CDK4 * (% inhibition).
For another data set, the target named is LCK tyrosine kinase (Homo sapiens, UniProt P06239, C224D/P223M). Kind of data set: LCK spectrophotometric assay. In kind it is biochemical. Particulars: Table 1; compound concentration 1 µM; read-out: Lck-P* (% inhibition). The protocol: The spectrophotometric assay was carried out as described above for VEGF-R2, except for the following changes in concentration: LCK = 60 nM, MgCl2 = 0 mM, poly(E4Y1) = 20 mM.

Data set [4] concerns VEGF dependent retinal neovascularization. Kind of data set: Neonatal rat model of retinopathy of prematurity. In kind it is in vivo. Particulars: Model ROP, intravitreal.
For another data set, the target named is human FGF-R1 (Homo sapiens, UniProt P11362, C488A/C584S/L457V). Briefly: FGF-R spectrophotometric assay. It is filed as biochemical. Particulars: Table 1; compound concentration 1 µM; read-out: FGF-P* (% inhibition). On the procedure: The spectrophotometric assay was carried out as described above for VEGF-R2, except for the following changes in concentration: FGF-R = 50 nM, ATP = 2 mM, and poly(E4Y1) =15 mM.

Data set [5] relates to human umbilical vein endothelial cells (HUVEC). Briefly: HUVEC proliferation assay (VEGF-stimulated, MTT). It is filed as cell-based. Particulars: Homo sapiens, HUVEC, Table 1.
The next data set concerns the target CDK2/Cyclin A complex (Homo sapiens, UniProt P24941). Kind of data set: CDK2/Cyclin A assay ([32P]ATP incorporation into Rb fragment). Particulars: for inhibition at 1 µM: read-out: CDK2 * (% inhibition). In kind it is biochemical.
Data set [6] concerns the target unphosphorylated VEGF-R2Δ50 (Homo sapiens, UniProt P35968, DEL940-989/E990V). Kind of data set: biochemical. Particulars: read-out: FLVK* (% inhibition).
The subject of data set [7] is VEGF dependent retinal vascular development. Briefly: In vivo assay of retinal vascular development in neonatal rats. Set-up: species or system rat. The protocol:
The development of the retinal vascular in rats occurs from postnatal day 1 to postnatal day 14 (P1-P14). […] To assess the ability of specific compounds to inhibit the activity of VEGF in vivo, compounds were formulated in an appropriate vehicle, usually 50% polyethylene glycol, average molecular weight 400 daltons, and 50% solution of 300 mM sucrose in deionized water. […] Six days after the intravitreal injection, the animals were sacrificed and the retinas dissected free from the remaining ocular tissue. […] The individual retinas are then flat-mount onto glass slides and examined to determine the extent of vascularization. […] The amount of vessel regression was used to assess the relative potency of the compounds after in vivo administration.
For more quantitative analysis of regression, images of ADPase-stained, flat-mounted retinas were captured with a digital camera attached to a dissecting microscope. Retinal images were then imported into an image analysis software (Image Pro Plus 4.0, Media Cybernetics, Silver Spring, MD). The software was employed to determine the percentage of the area of the retina that contained stained vessels. This value for the experimental eye was compared to that measured for the vehicle injected, contralateral eye from the same animal. The reduction in the vascular area seen in the eye that received compound as compared to the vehicle-injected eye was then expressed as the "percent regression" for that sample.

Setting [8] is: 10 mg/ml, vehicle PEG/water 70:30.
Setting [9] is: MV522, Table 1, read-out: MV522 IC50.
[10] abbreviates: + albumin, read-out: HUVEC + albumin IC50.

Where two headings read alike, the source gives them in different places. Where only a bound is given, the exact number is not on record here.

Sequence of human FGF-R1 (P11362 456-766 L457V/C488A/C584S): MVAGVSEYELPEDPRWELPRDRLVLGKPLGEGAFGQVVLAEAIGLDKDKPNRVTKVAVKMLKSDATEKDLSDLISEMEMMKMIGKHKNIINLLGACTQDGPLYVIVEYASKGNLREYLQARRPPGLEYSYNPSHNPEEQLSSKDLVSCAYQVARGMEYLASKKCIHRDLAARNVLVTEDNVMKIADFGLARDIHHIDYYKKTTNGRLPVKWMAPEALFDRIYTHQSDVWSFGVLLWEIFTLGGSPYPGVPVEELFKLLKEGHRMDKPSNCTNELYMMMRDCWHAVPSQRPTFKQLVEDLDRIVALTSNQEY
Sequence of CDK4/Cyclin D3 complex (P11802 whole entry): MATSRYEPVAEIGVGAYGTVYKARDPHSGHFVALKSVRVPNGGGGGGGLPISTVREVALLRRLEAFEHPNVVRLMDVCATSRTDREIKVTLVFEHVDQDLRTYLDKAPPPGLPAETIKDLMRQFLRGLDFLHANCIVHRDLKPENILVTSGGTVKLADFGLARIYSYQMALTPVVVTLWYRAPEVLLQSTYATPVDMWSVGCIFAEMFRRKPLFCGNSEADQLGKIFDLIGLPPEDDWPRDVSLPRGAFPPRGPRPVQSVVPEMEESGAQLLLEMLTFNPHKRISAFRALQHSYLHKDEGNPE
Sequence of CDK4/Cyclin D3 complex (P30281 whole entry partner): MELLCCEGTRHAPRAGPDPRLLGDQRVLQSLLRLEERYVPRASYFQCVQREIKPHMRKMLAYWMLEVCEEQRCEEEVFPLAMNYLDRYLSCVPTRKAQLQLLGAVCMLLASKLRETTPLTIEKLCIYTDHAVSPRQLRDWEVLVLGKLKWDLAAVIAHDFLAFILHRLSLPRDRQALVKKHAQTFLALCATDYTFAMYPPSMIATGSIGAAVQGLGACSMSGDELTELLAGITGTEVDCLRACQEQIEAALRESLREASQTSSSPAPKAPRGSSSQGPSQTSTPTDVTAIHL
T2 sequence (Q02763 775-1122): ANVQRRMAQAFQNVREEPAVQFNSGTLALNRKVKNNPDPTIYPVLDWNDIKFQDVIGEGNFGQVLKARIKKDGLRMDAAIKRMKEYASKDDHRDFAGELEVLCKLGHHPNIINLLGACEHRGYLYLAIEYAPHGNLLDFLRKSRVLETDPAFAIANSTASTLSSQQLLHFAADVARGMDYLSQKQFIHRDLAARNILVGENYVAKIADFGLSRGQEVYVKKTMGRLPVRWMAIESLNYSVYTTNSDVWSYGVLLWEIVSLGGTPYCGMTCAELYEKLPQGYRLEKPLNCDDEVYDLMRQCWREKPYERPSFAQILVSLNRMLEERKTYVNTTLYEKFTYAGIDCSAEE
Sequence of LCK tyrosine kinase (P06239 223-509 P223M/C224D): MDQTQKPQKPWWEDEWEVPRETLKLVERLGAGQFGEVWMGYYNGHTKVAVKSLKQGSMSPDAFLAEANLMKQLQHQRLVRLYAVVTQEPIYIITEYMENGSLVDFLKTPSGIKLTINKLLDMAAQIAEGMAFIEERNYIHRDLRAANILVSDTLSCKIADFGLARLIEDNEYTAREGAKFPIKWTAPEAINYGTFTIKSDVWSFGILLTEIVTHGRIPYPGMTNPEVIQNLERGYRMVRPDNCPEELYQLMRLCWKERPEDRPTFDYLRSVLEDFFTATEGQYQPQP
Sequence of unphosphorylated VEGF-R2Δ50 (P35968 with tags, fused parts or gaps DEL940-989/E990V limits assumed): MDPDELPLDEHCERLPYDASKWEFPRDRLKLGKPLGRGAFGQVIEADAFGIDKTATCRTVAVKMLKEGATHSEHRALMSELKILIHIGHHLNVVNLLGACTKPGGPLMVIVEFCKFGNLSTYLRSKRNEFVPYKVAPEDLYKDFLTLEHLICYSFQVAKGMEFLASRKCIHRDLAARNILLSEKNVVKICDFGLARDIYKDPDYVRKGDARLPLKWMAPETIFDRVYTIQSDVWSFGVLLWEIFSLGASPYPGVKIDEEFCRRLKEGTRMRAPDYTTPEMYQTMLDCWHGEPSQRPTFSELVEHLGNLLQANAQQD
T1 sequence (Q05397 409-689 P410T): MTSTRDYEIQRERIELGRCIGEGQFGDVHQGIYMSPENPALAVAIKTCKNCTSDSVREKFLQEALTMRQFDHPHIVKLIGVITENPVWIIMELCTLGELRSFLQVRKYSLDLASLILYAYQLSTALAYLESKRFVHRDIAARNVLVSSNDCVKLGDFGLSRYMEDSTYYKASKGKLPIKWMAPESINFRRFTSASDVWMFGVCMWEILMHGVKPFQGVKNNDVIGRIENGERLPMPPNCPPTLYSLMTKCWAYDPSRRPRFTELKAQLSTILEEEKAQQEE

For orientation: inhibition means how much of the control response was suppressed. The term AUC denotes concentration integrated over time. Low readings indicate less exposure, high ones more exposure. In general, IC50 refers to the point on the concentration scale where inhibition reaches its midpoint. With `COc1cc(-c2ccc3c(/C=C/c4ccc(OC)c(OC)c4)n[nH]c3c2)ccc1O` [1(a), 3-[E-2-(3,4-Dimethoxy-phenyl)vinyl]-6-(3-methoxy-4-hydroxyphenyl)-1H-indazole], the inhibition at 10 µM stood at 69% on human FAK (FAKcd409) and 95% in data set [1] (read-out: % Inhibition Tie2-P, compound tested at 10 µM). The molecule further yielded a T1/2 in [2] (IP, 50 mg/kg) of 2.4 h. Further, the area under the curve (AUC) in “in vivo” (ip, 50 mg/kg) amounted to 691 ng·h/mL. Besides, the “% remain (HLM, 2 h)” value in “in vitro” was 98%. In addition, the IC50 in data set [3] (MV522, read-out: MV522 IC50 (µM)) is 0.35 µM.
One may read the Cmax as the peak of the concentration-time curve. On to `O=C(Nc1cccc(Oc2ccc3c(/C=C/c4ccccc4)n[nH]c3c2)c1)c1ccccc1` [4(a), N-[3-(3-Styryl-1H-indazol-6-yloxy)-phenyl]-benzamide], for which the inhibition at 1 µM in [1] was determined as 69%; on CDK4/Cyclin D3 complex, 19%; at LCK tyrosine kinase it was 68%. This molecule registered a Cmax in “in vivo” (po, 50 mg/kg) of 50 ng/mL. Further, the “Initial Evaluation” value in [4] (setting [8]) is listed as “++ (two pluses being judged to be approximately 25-75 % regression)”. The IC50 in [3] (setting [9]) amounted to 6.3 µM.
As to `O=C(Nc1cccc(Oc2ccc3c(/C=C/c4ccc(Cl)cc4)n[nH]c3c2)c1)c1ccccc1` [6(a), N-(3-[3-[2-(4-Chloro-phenyl)-vinyl]-1H-indazol-6-yloxy}-phenyl)-benzamide], the inhibition at 1 µM at human FGF-R1 was 67%; on LCK tyrosine kinase, 33%. Besides, the IC50 in data set [5] (setting [10]) amounted to 50 nM; in data set [5] (read-out: HUVEC IC50) it was 8.5 nM; in data set [3] (setting [9]), 3.5 µM. In the data set “in vitro”, the remaining at 2 h, 5 µM is 69%. For the same molecule, in data set [4] (5 mg/ml, vehicle PEG/water), the “Initial Evaluation” value is given as “++ (two pluses being judged to be approximately 25-75 % regression)”.
Take `O=C(Nc1cccc(C(=O)c2ccc3c(/C=C/c4ccccc4)n[nH]c3c2)c1)c1ccccc1` [19(b), N-[3-(3-Styryl-1H-indazole-6-carbonyl)-phenyl]-benzamide]: the figures for the inhibition at 1 µM at human FGF-R1, on CDK4/Cyclin D3 complex and on LCK tyrosine kinase were 60%, 11% and 58%, respectively. The IC50 in [5] (setting [10]) is 27 nM; in data set [5] (read-out: HUVEC IC50), 2.9 nM; in data set [3] (setting [9]), 4.3 µM. The molecule further returned a Cmax in the data set “in vivo” (po, 50 mg/kg) of 30 ng/mL. Moreover, the remaining at 2 h, 5 µM in “in vitro” was 137%. Also, in data set [4] (setting [8]), the “Initial Evaluation” value is listed as “++ (two pluses being judged to be approximately 25-75 % regression)”.
Turning to `C=C(c1cccc(NC(C)=O)c1)c1ccc2c(/C=C/c3ccccc3)n[nH]c2c1` [Example 23, 6-(1-(3-Acetamido-phenyl)-vinyl)-3-styryl-1H-indazole], the inhibition at 1 µM at human FGF-R1 was 14%; in data set [1], 5%; at CDK4/Cyclin D3 complex, 17%; on LCK tyrosine kinase, 12%. The results for the IC50 in data set [5] (setting [10]), in data set [5] (read-out: HUVEC IC50) and in [3] (setting [9]) were 106 nM, 9.5 nM and 5.7 µM, respectively.
Turning to `CCOc1cc(CO)c(-c2ccc3c(-c4nc5ccccc5[nH]4)n[nH]c3c2)cc1OC` [Reference Example 24(m), 3-1H-Benzoimidazol-2-yl-6-(2-(hydroxymethyl)-4-ethoxy-5-methozy-phenyl)-1H-indazole], the inhibition at 1 µM at CDK4/Cyclin D3 complex is 16%; on CDK2/Cyclin A complex, 17%.
Turning to `Oc1ccc(-c2ccc3c(/C=C/c4ccccc4)n[nH]c3c2)cc1` [Reference Example 28(b), 6-(4-hydroxyphenyl)-3-E-styryl-1H-indazole], the inhibition at 1 µM in data set [6] came to 96%; at CDK4/Cyclin D3 complex it was 98%; at CDK2/Cyclin A complex it was 97%.
The Ki is the dissociation constant of the complex between target and ligand, obtained from inhibition or displacement. On to `Clc1cccc(/C=C/c2n[nH]c3cc(-c4ccncc4)ccc23)c1` [Reference Example 29(i), 6-pyrid-4-yl-3-E-[2-(3-chlorophenyl)ethenyl]-1H-indazole], for which the Ki at CDK4/Cyclin D3 complex was found to be 5000 nM; at CDK2/Cyclin A complex (Table 3, read-out: CDK2* (Ki)), 3100 nM.
Usually % Inhibition stands for the relative decrease from the control value, in per cent. As for `O=C(Nc1cccc(Oc2ccc3c(/C=C/c4cccs4)n[nH]c3c2)c1)c1ccccc1` [Reference Example 30(a), 6-[3-benzamidophenoxy]-3-E-[2-(thien-2-yl)thenyl]-1H-indazole], the inhibition at 1 µM at human FGF-R1 amounted to 94%; in data set [1] it was 19%; on LCK tyrosine kinase, 45%. Besides, the IC50 was 22 nM in data set [5] (setting [10]), 1.6 nM in data set [5] (read-out: HUVEC IC50) and 5.7 µM in data set [3] (setting [9]). The “% remain (HLM, 2 h)” value in “in vitro” was determined as 64%. For the same molecule, the “% Inhibition” value in data set [4] (setting [8]) stood at 48%. The “Initial Evaluation” value in [4] (setting [8]) was “++ (two pluses being judged to be approximately 25-75 % regression)”.
As for `Cn1ccnc1C(=O)Nc1cccc(Oc2ccc3c(/C=C/c4ccccn4)n[nH]c3c2)c1` [Reference Example 31(e), 6-[3-((1-Methylimidazol-2-yl)carboxamido)phenoxy]-3-E-[2-(pyridin-2-yl)ethenyl]-1H-indazole], the inhibition at 1 µM turned out to be 62% on human FGF-R1 and 43% at LCK tyrosine kinase. For the same molecule, the IC50 in data set [5] (setting [10]) was 6.2 nM; in data set [3] (setting [9]) it was 8.6 µM. Besides, the T1/2 in data set [2] (PO, 25 mg/kg) stood at 13.1 h. The AUC in “in vivo” (po, 25 mg/kg) is > 30300 ng·h/mL. Moreover, the “% remain (HLM, 2 h)” value in “in vitro” is listed as 49%. In addition, the “% Inhibition” value in data set [7] (Model P8, intravitreal, 5 mg/ml, vehicle PEG/water 50:50) worked out at 24%.
Turning to `O=C(Nc1cccc(C(=O)c2ccc3c(-c4nc5ccccc5[nH]4)n[nH]c3c2)c1)c1ccccc1` [Reference Example 42(b), 6-(3-Benzamidobenzoyl)-3-(1H-benzoimidazol-2-yl)-1H-indazole], the results for the inhibition at 1 µM at human FGF-R1 and at LCK tyrosine kinase were 27% and 75%, respectively. Besides, the IC50 in data set [5] (setting [10]) came to 29 nM; in data set [5] (read-out: HUVEC IC50), 2.1 nM; in data set [3] (setting [9]), 2.1 µM. The “% remain (HLM, 2 h)” value in “in vitro” stood at 81%. Also, in data set [7] (Model P9, intravitreal, 10 mg/ml, vehicle PEG/water 70:30), the “% Inhibition” value stood at 40%.
